According to ChEMBL document CHEMBL1127010, “Synthesis of 3-acetoxy-12-epoxy-25-hydroxy-cholesta-5,7-diene and 2-25-dihydroxyvitamin D3” (1993):

Test system: HL-60
Assay: Concentration required for induction of HL-60 cell differentiation (ATCC cells) to 50% was determined
Type: functional, Homo sapiens

## C=C1C[C@H](O)[C@H](O)C/C1=C/C=C1\CCCC2(C)C1CCC2[C@H](C)CCCC(C)(C)O (stereo partly specified)
  EC50: 600 nM
